Columns and labels:
[1] = Particle size and PDI of LNP preparation by dynamic light scattering (Malvern Zetasizer Ultra); type: physicochemical
[2] = Encapsulation efficiency of LNP (Quant-it Ribogreen RNA quantitative assay kit); type: physicochemical
female Balb/C mice [3] = test: Total Spike antibody titer in serum (ELISA) after intramuscular injection of Spike mRNA LNP; type: in vivo; settings: 2 μg/mouse, second injection on 21st day, serum 7th day after second administration, n=8, compared with PBS
[4] = pKa of LNP by TNS dye binding test; type: physicochemical; settings: Table 3, pKa of the LNP, 40:11:47.4:1.6, N/P 8:1
Experimental: (§1) In this example, the ionizable lipids prepared from Preparation Example 3 to Preparation Example 17 were selected. Following the same method as in Example 1, an LNP preparation (encapsulating Fluc mRNA) was prepared according to a molar ratio and a nitrogen-to-phosphorus ratio shown in Table 3. Malvern Zetasizer Ultra was used to measure a particle size, a PDI, and a surface potential of each LNP preparation; a Quant-it Ribogreen RNA quantification assay kit (manufacturer: ThermoFisher Scientific, item number: R11490) was used to measure encapsulation efficiency of LNP; and a dye binding test of 6-(p-Toluidino)-2-naphthalene sulfonic acid sodium salt (TNS, purchased from Nanjing Xize Pharmaceutical Technology Co., Ltd., item number: XZ0743) was used to measure pKa of the LNP.

female Balb/C mice [5] = test: In-vivo bioluminescence (overall luminescence intensity, AUC) after tail vein injection of Fluc mRNA LNP; settings: 5 μg/mouse, liver site, Table 3 LNP
[6] = Surface potential of LNP preparation (Malvern Zetasizer Ultra); type: physicochemical; settings: Table 3; LNP 40:11:47.4:1.6, N/P 8:1
Experimental: as §1

female Balb/C mice [7] = test: In-vivo bioluminescence at lower limb administration site after intramuscular injection of Fluc mRNA LNP; settings: 5 μg/mouse, Table 3 LNP
Experimental: In this example, LQ104-1 to LQ104-8 (encapsulating Fluc mRNA) from Example 1 were injected via tail vein into female Balb/C mice (Viton Lihua) aged 6 to 8 weeks at a dose of 5 μg/mouse (n=3, i.e. 3 mice were used for injection and testing in each group, and the data results presented were the mean measurements of each group). […] potassium salt was intraperitoneally injected at specific time points after administration (in this example, 6th hour, 24th hour, and 48th hour), and then the luminescence was detected by an IVIS Spectrum small animal living imager instrument (manufacturer: PerkinElmer). The overall luminescence intensity of live expression sites (such as the liver) in mice was counted. […] The overall luminescence intensity was the luminescence intensity data, measured by bioluminescence imaging, of the luminescent site obtained 6 to 15 minutes (min) after intraperitoneal injection of […] potassium salt. The overall luminescence intensity of the in vivo expression area was counted by using Living Image software (manufacturer: PerkinElmer), furthermore, an area under the curve (AUC, unit: p/s*hour) was calculated by using GraphPad software, and the AUC in each example of the present application is the area under the curve of a line connecting measurement points of the overall luminescence intensity from the 4th or 6th hour after drug administration (using the experimental method of the present application, peak values are the same from 3-6 hours after drug administration) to the 48th hour after drug administration. Test results were shown in FIG. 3 and FIG. 4A, as well as Table 2.
Furthermore, referring to the mouse in-vivo experimental method of Example 3, each group of LNP preparations in this example was injected into female Balb/C mice aged 6 to 8 weeks through tail vein injection or intramuscular injection of the lower limbs at a dose of 5 μg/mouse. The overall luminescence intensity of the liver or lower limb administration site was counted, and the test results were shown in FIG. 5A to FIG. 5D and Table 4A to Table 4D). […]

[8] = Table 1, Example 1 LNP preparations
[9] = Table 3, LNP 40:11:47.4:1.6, N/P 8:1
[10] = Table 3, LNP lipid:DSPC:cholesterol:DMG-PEG = 40:11:47.4:1.6, nitrogen-to-phosphorus ratio 8:1, Fluc mRNA

Structure (SMILES)	PDI [1, 8]	Particle size (nm) ([1]; Table 1, Example 1 LNP preparations (ionizable lipid:DSPC:cholesterol:DMG-PEG))	Encapsulation efficiency (%) [2, 8]	total Spike protein antibody titer (female Balb/C mice [3])	pKa [4]	AUC (p/s*hour) (female Balb/C mice [5]; Table 4B (FIG. 5B))	Surface potential (mV) [6]	AUC (p/s*hour) (female Balb/C mice [7]; Table 4D (FIG. 5D))	PDI [1, 9]	Particle size (nm) [1, 10]	Encapsulation efficiency (%) [2, 9]	AUC (p/s*hour) (female Balb/C mice [5]; Table 4A (FIG. 5A))	AUC (p/s*hour) (female Balb/C mice [7]; Table 4C (FIG. 5C))
CCCCCCCCCCCOC(=O)CCCCCN(CCCCCCCC(=O)OC(CCCCCCCC)CCCCCCCC)CCOC(=O)CC(=O)OCCN(CCCCCCCC(=O)OC(CCCCCCCC)CCCCCCCC)CCCCCC(=O)OCCCCCCCCCCC [LQ107]	0.025	83.56 nm	83.7%	did not increase	–	–	–	–	–	–	–	–	–
CCCCCCCCC(CCCCCC)OC(=O)CCCCCCN(CCO)CCN(CCO)CCCCCCC(=O)OC(CCCCCC)CCCCCCCC (stereo not drawn) [LQ104-E17b-3]	–	–	–	–	7.15	9.91E+10 p/s*hour	−2.788 mV	3.82E+09 p/s*hour	0.058	85.57 nm	97.4%	–	–
CCCCCCCCCC(CCCCCCCCC)OC(=O)CCCN(CCO)CCN(CCO)CCCC(=O)OC(CCCCCCCCC)CCCCCCCCC [LQ104-E15b-3]	–	–	–	–	6.161	–	−10.70 mV	–	0.083	52.80 nm	96.0%	–	–
CCCCCCCCC(CCCCCC)C(=O)OCCCCCCN(CCO)CCN(CCO)CCCCCCOC(=O)C(CCCCCC)CCCCCCCC (stereo not drawn) [LQ104-E17b-3R]	–	–	–	–	7.153	6.33E+09 p/s*hour	−2.203 mV	1.47E+09 p/s*hour	0.087	77.34 nm	97.4%	–	–
CCCCCCCC(CCCCCCC)OC(=O)CCCCCCN(CCO)CCN(CCO)CCCCCCC(=O)OC(CCCCCCC)CCCCCCC [LQ104-E16b-1]	–	–	–	–	7.109	–	−3.35 mV	–	0.044	84.84 nm	97.2%	2.74E+10 p/s*hour	2.30E+09 p/s*hour
CCCCCCCCC(CCCCCCCC)OC(=O)CCCCCCN(CCO)CCN(CCO)CCCCCCC(=O)OC(CCCCCCCC)CCCCCCCC [LQ104-E17b-2]	–	–	–	–	6.852	5.58E+10 p/s*hour	−1.852 mV	2.49E+09 p/s*hour	0.045	74.14 nm	97.4%	–	–
CCCCCCCC(CCCCCCC)OC(=O)CCCCCCCN(CCO)CCN(CCO)CCCCCCCC(=O)OC(CCCCCCC)CCCCCCC [LQ104-E17b-1]	–	–	–	–	7.19	3.16E+10 p/s*hour	−1.066 mV	2.66E+09 p/s*hour	0.082	85.67 nm	96.9%	–	–
CCCCCCCCC(CCCCCC)C(=O)OCCCCCCCN(CCO)CCN(CCO)CCCCCCCOC(=O)C(CCCCCC)CCCCCCCC (stereo not drawn) [LQ104-E18b-2R]	–	–	–	–	7.033	1.01E+10 p/s*hour	−2.013 mV	1.73E+09 p/s*hour	0.081	80.10 nm	97.4%	–	–
CCCCCCCCCC(CCCCCCC)OC(=O)CCCCCCN(CCO)CCN(CCO)CCCCCCC(=O)OC(CCCCCCC)CCCCCCCCC (stereo not drawn) [LQ104-E18b-3]	–	–	–	–	7.039	1.06E+11 p/s*hour	−2.466 mV	4.80E+09 p/s*hour	0.063	90.39 nm	97.4%	–	–
CCCCCCCCC(CCCCCC)C(=O)OCCCCCN(CCO)CCN(CCO)CCCCCOC(=O)C(CCCCCC)CCCCCCCC (stereo not drawn) [LQ104-E16b-3R]	–	–	–	–	6.802	–	−4.59 mV	–	0.088	89.68 nm	96.8%	1.47E+10 p/s*hour	2.19E+09 p/s*hour
CCCCCCCCC(CCCCCC)OC(=O)CCCCCCCN(CCO)CCN(CCO)CCCCCCCC(=O)OC(CCCCCC)CCCCCCCC (stereo not drawn) [LQ104-E18b-2]	–	–	–	–	7.262	5.32E+10 p/s*hour	−1.109 mV	3.06E+09 p/s*hour	0.084	84.46 nm	97.5%	–	–
CCCCCCCCC(CCCCCCCC)OC(=O)CCCCCN(CCO)CCN(CCO)CCCCCC(=O)OC(CCCCCCCC)CCCCCCCC [LQ104-E16b-2]	–	–	–	–	6.761	–	−4.38 mV	–	0.098	75.44 nm	97.9%	8.98E+10 p/s*hour	3.50E+09 p/s*hour
CCCCCCCCCC(CCCCCCC)OC(=O)CCCCCN(CCO)CCN(CCO)CCCCCC(=O)OC(CCCCCCC)CCCCCCCCC (stereo not drawn) [LQ104-E17b-4]	–	–	–	–	6.469	7.68E+10 p/s*hour	−3.406 mV	2.86E+09 p/s*hour	0.061	72.30 nm	98.0%	–	–
CCCCCCCCC(CCCCCC)OC(=O)CCCCCN(CCO)CCN(CCO)CCCCCC(=O)OC(CCCCCC)CCCCCCCC (stereo not drawn) [LQ104-E16b-3]	–	–	–	–	6.773	–	−5.94 mV	–	0.091	78.35 nm	97.6%	1.95E+10 p/s*hour	2.10E+09 p/s*hour
CCCCCCCC(CCCCCCC)OC(=O)CCCCCN(CCO)CCN(CCO)CCCCCC(=O)OC(CCCCCCC)CCCCCCC [LQ104-E15b-1]	–	–	–	–	6.754	–	−4.22 mV	–	0.059	71.08 nm	98.1%	2.26E+10 p/s*hour	5.58E+09 p/s*hour
CCCCCCCCC(CCCCCCCC)OC(=O)CCCCN(CCO)CCN(CCO)CCCCC(=O)OC(CCCCCCCC)CCCCCCCC [LQ104-E15b-2]	–	–	–	–	6.470	–	−6.81 mV	–	0.059	56.47 nm	96.8%	–	–
